Experiments:
Assay type in all cases: in vivo
petunia = experiment: Ploidy identification by flow cytometer of OBF1 over-expressing petunias screened with kanamycin; conditions: for Proportion of chromosome doubling: OBF1 over-expression
Procedure: (9) Two days later, the leaves were transferred to a regeneration culture medium with corresponding screening resistance, the culture medium was replaced every two to three weeks, and the leaves waited for differentiation.
(14) The ploidy of the plants was identified by a flow cytometer, a doubling ratio of the plants under different treatment concentrations of kanamycin was calculated, and the results are shown in Table 2 and FIGS. 10A-10C.

tomatoes = experiment: Ploidy identification by flow cytometer of OBF1 over-expressing tomatoes screened with kanamycin; conditions: tomato; for Proportion of chromosome doubling: OBF1 over-expression
Procedure: (5) The explants were transferred and placed into the screening culture medium; the photoperiod was 18/6 h, the temperature was 22-25° C., the humidity was 60%, and concentration settings of kanamycin and compositions of culture media were shown in Table 3;
(6) The ploidy of the plants was identified by a flow cytometer, the doubling ratio of the plants under different screening concentrations of kanamycin was calculated, and the results are shown in Table 4 and FIGS. 12A-12B.

tobaccoes = experiment: Ploidy identification by flow cytometer of OBF1 over-expressing tobaccoes screened with kanamycin; conditions: tobacco; for Proportion of chromosome doubling: OBF1 over-expression
Procedure: (5) The leaves were transferred to a screening culture medium with corresponding screening resistance; the culture medium was replaced every two to three weeks, and the leaves waited for differentiation.
(8) The ploidy of the plants was identified by a flow cytometer, the doubling ratio of the plants under different screening concentrations of kanamycin was calculated, and the results are shown in Table 6 and FIGS. 14A-14B.

NC[C@H]1O[C@H](O[C@H]2[C@H](O)[C@@H](O[C@H]3O[C@H](CO)[C@@H](O)[C@H](N)[C@H]3O)[C@H](N)C[C@@H]2N)[C@H](O)[C@@H](O)[C@@H]1O [kanamycin]
Proportion of chromosome doubling (petunia; kanamycin 50 mg/L): 0% | Proportion of chromosome doubling (petunia; kanamycin 100 mg/L): 63.6% | Proportion of chromosome doubling (petunia; kanamycin 150 mg/L): 80% | Chromosome-doubled plant (petunia; kanamycin 50 mg/L, of 27 transgenic plants): 0 plant | Chromosome-doubled plant (petunia; kanamycin 100 mg/L, of 22 transgenic plants): 14 plant | Chromosome-doubled plant (petunia; kanamycin 150 mg/L, of 6 transgenic plants): 4 plant | Proportion of chromosome doubling (tomatoes; kanamycin 50 mg/mL): 0% | Proportion of chromosome doubling (tomatoes; kanamycin 100 mg/mL): 60% | Chromosome-doubled plant (tomatoes; kanamycin 50 mg/mL, of 30 transgenic plants): 0 plant | Chromosome-doubled plant (tomatoes; kanamycin 100 mg/mL, of 10 transgenic plants): 6 plant | Proportion of chromosome doubling (tobaccoes; kanamycin 50 mg/mL): 0% | Proportion of chromosome doubling (tobaccoes; kanamycin 100 mg/mL): 33.3% | Chromosome-doubled plant (tobaccoes; kanamycin 50 mg/mL, of 10 transgenic plants): 0 plant | Chromosome-doubled plant (tobaccoes; kanamycin 100 mg/mL, of 20 transgenic plants): 6 plant
